# Measurements reported in ChEMBL document CHEMBL1201862, “PubChem BioAssay data set” (2004).
# Activity calls are given as the source filed them. Cut-off read from the data, not from the text of the source, for most assays here: actives have a measured EC50 and inactives only a lower limit.
# Columns and labels:
# Large T antigen = Large T antigen (Simian virus 40, UniProt P03070); type: functional, Betapolyomavirus macacae;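 note: Confirmatory-stage PubChem screen for compounds that inhibit SV40 T antigen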
# Sequence of Large T antigen (P03070 whole entry): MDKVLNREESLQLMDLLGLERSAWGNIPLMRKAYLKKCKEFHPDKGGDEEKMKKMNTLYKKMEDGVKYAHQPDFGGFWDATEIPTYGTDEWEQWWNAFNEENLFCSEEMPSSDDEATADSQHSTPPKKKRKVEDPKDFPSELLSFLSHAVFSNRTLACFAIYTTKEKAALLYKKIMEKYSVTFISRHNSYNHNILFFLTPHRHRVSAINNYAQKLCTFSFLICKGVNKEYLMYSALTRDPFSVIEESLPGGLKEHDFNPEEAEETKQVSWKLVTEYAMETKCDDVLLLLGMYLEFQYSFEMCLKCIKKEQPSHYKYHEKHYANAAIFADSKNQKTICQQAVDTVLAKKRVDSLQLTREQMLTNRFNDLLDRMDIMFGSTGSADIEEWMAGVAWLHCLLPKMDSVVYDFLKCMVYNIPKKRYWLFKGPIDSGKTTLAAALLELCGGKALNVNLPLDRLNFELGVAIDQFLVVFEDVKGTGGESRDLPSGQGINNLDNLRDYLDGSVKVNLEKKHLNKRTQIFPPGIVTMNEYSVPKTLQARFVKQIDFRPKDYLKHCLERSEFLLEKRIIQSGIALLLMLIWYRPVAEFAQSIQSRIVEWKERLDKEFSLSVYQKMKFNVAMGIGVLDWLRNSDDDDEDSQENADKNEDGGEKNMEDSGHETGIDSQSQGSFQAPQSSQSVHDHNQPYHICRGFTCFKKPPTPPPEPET
# [1] = molecular target: Luciferin 4-monooxygenase (Photinus pyralis, UniProt P08659); test: inhibition of purified Photinus pyralis luciferase – biochemical, luminescence, dose response (AID 1891)
# Sequence of Luciferin 4-monooxygenase (P08659 whole entry): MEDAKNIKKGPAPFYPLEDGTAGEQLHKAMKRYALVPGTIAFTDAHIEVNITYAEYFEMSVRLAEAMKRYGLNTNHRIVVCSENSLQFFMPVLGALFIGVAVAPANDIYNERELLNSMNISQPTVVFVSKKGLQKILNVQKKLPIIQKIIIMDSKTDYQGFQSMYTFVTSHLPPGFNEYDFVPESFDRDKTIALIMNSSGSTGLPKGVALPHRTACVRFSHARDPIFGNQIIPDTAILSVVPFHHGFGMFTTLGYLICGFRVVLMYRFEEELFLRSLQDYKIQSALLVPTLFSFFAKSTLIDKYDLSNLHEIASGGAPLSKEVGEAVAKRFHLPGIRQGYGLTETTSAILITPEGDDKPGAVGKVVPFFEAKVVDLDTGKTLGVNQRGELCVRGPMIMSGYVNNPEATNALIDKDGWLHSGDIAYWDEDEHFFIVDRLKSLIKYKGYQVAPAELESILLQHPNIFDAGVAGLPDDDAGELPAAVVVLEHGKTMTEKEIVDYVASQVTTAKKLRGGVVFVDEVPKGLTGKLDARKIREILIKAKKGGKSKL
# [2] = Luminescence Cell-Based Dose Confirmation HTS to Identify Inhibitors of Platelet Dense Granule Release. [Related pubchem assays: 1663 (Primary HTS), 1678 (Summary of Project)]; type: functional
# H9c2 = test: cells; type: functional, cell-based; settings: Rattus norvegicus, H9c2, Myocardium;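 note: confirmatory concentration-response retest of ultra-high-throughput screening hits for modulation of myocardial damage; cell death induced by hydrogen peroxide oxidative stress; compound pretreatment for 60 min then peroxide exposure for 2 h; potency is for protecting the cells against peroxide damage rather than for killing them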
# Protein skinhead-1 = molecular target: T1, Protein skinhead-1 (Caenorhabditis elegans, UniProt P34707); type: functional
# T1 sequence (P34707 whole entry): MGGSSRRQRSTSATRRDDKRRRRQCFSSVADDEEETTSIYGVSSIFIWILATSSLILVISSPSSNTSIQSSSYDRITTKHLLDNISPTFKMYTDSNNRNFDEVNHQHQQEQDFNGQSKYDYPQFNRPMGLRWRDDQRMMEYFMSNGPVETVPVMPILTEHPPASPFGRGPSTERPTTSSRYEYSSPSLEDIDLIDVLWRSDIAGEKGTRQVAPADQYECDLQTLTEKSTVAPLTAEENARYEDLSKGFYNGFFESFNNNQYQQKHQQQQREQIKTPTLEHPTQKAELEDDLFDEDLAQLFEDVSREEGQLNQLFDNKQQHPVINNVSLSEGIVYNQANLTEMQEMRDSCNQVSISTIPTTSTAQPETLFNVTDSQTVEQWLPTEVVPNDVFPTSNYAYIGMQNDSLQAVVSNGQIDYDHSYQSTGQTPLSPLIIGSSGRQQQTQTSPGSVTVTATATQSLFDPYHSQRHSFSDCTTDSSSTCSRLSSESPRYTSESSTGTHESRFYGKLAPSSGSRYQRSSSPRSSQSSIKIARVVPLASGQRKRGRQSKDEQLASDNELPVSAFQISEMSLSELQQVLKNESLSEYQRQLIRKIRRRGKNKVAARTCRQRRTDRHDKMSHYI
# BJ [3] = test: BJ-TERT fibroblast viability loss – cell-based, RAS-independent, luminescence, dose response (AID 1933); type: functional; settings: Homo sapiens
# BJ [4] = test: BJ-TERT-LT-ST fibroblast viability loss – cell-based, RAS-independent, luminescence, dose response (AID 1935); type: functional; settings: Homo sapiens;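 note: BJ fibroblasts immortalized with TERT plus LT and ST oncogenes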
# [5] = DRD fibroblast viability loss – cell-based, non-viral oncogenic, luminescence, dose response (AID 1934); type: functional; settings: Homo sapiens
# BJ [6] = test: cells; type: functional, cell-based; settings: Homo sapiens
# [7] = molecular target: T2, Rac GTPase-activating protein 1 (Homo sapiens, UniProt Q9H0H5); test: blockers of MgcRacGAP-driven Rac1 GTP hydrolysis – biochemical, ADP Hunter fluorescence, primary and confirmatory, confirmation (AID 624330); type: functional
# T2 sequence (Q9H0H5 whole entry): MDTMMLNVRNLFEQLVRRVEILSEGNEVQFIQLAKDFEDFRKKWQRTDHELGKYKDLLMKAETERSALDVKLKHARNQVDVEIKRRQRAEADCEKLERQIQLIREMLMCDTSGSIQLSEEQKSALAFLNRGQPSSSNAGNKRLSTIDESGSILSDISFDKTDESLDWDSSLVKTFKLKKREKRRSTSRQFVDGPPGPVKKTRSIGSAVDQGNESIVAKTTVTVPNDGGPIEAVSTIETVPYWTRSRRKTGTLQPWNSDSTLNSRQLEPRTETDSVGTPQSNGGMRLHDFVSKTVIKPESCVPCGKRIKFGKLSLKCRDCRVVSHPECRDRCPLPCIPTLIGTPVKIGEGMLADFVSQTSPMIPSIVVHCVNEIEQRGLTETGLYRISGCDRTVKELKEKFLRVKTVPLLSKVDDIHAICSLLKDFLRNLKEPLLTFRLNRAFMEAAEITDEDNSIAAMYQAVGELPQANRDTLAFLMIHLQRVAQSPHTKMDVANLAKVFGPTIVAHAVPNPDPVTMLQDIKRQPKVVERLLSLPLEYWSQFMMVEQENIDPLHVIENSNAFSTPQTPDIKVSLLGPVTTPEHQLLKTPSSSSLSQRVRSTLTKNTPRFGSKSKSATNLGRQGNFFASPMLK
# Cytochrome P450 2D6 = Cytochrome P450 2D6 (Homo sapiens, UniProt P10635);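 note: CYP2D6 member of a cytochrome P450 panel assay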
# Sequence of Cytochrome P450 2D6 (P10635 whole entry): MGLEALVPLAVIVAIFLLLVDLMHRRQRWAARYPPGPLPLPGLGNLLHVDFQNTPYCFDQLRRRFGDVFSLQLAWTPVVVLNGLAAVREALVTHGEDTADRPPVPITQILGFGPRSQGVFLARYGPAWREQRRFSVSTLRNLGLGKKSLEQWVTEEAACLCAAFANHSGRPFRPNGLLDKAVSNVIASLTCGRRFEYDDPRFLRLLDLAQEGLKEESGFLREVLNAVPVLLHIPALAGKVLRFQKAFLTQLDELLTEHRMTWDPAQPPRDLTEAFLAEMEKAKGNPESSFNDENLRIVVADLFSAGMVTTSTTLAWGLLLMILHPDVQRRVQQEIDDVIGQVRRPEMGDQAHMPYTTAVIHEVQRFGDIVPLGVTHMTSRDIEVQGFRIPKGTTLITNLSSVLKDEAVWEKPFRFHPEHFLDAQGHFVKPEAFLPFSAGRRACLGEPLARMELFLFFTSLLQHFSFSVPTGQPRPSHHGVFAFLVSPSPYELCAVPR
# [8] = luciferase reporter signal suppression in cells – H4 neuroglioma cells, luminescence, dose response (AID 1990); type: functional, cell-based
# [9] = alpha-synuclein stem-loop luciferase translation blockers – H4 neuroglioma cells, luminescence, confirmation (AID 1988); type: functional, cell-based
# [10] = Luminescence Cell-Based Dose Response HTS to Identify Inhibitors of 5'UTR Stem-Loop Driven Prion Protein mRNA Translation in H4 Neuroglioblastoma Cells. [Related pubchem assays: 1827 (Project Summary), 1813 (Primary HTS)]; type: functional
# [11] = test system: Streptococcus sp. 'group A'; test: Streptococcus pyogenes SK(-)GAS viability under kanamycin – luminescence, BacTiterGlo, confirmation, counter-screen for streptokinase expression inhibitor project, dose response (AID 1900); type: functional, organism-based
# Streptococcus = test: GAS UMAA2166 growth inhibition – luminescence, BacTiterGlo, counter-screen for streptokinase expression inhibitor project, dose response (AID 1915); type: functional, organism-based;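 note: potency for reduction of bacterial viability or growth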
# Streptokinase A = molecular target: T3, Streptokinase A (Streptococcus pyogenes serotype M1, UniProt P10520); test: viability-normalized secreted streptokinase activity reduction – plasminogen activation absorbance, OD405, dose response (AID 1914); type: functional, Streptococcus pyogenes M1 GAS;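 note: secreted streptokinase activity via plasminogen activation per viability signal from cell pellet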
# T3 sequence (P10520 whole entry): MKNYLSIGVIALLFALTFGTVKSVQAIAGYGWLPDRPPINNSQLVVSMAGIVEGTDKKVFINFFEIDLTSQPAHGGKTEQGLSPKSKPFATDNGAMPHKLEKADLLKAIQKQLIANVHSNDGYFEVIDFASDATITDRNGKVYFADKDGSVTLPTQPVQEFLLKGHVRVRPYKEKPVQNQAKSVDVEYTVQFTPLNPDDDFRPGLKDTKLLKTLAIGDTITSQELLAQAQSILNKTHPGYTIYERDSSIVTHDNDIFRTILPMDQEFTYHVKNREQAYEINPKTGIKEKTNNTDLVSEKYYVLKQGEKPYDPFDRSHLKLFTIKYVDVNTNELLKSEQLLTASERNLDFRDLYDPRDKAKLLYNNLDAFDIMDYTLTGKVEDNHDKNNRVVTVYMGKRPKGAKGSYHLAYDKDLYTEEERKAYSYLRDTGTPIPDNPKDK
# Paired box protein Pax-8 = Paired box protein Pax-8 (Homo sapiens, UniProt Q06710); test: PAX8 transcriptional activity inhibition in RMG-I – RMG-I cells, luciferase, cherry-pick, dose response (AID 687027); type: functional, cell-based;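 note: luciferase reporter driven by Pax8 target thyroperoxidase promoter measured by SteadyGlo luminescence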
# Sequence of Paired box protein Pax-8 (Q06710 whole entry): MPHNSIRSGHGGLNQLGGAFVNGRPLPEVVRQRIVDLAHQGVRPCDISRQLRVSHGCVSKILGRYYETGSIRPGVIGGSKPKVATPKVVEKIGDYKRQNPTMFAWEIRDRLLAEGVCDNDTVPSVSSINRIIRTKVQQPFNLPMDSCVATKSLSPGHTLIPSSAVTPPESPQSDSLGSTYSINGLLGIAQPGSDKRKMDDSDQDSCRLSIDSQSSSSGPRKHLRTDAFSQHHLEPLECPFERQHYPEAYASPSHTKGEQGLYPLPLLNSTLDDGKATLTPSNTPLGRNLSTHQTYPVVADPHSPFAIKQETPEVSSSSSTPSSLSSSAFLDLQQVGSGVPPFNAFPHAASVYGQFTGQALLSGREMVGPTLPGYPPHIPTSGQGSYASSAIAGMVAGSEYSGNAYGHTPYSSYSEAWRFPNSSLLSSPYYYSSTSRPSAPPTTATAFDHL
# [12] = molecular target: Heat shock protein HSP 90-alpha (Homo sapiens, UniProt P07900); type: functional, organism-based
# cells [13] = type: functional, cell-based
# cells [14] = type: functional, cell-based; remark: listed apart in the source
structure (smiles),measurement,setting,value
CC(O)CCc1ccc(O)cc1 (centres undefined),IC50,Large T antigen,25.4 µM (active)
Cn1cc(S(=O)(=O)N2CCOCC2)cc1C(=O)NCCc1ccccc1,EC50,[1],> 112 µM (not active)
same,EC50,[2],> 112 µM (not active)
Cc1cc(C)c(C)c(S(=O)(=O)N2CCN(C(=O)c3cc(O)nc4ccccc34)CC2)c1C,IC50,H9c2,> 79 µM (inactive)
CS(=O)(=O)N1CCC(Oc2ccccc2C(=O)N2CCN(CC3CC3)CC2)CC1,EC50,[1],> 112 µM (not active)
same,EC50,[2],> 112 µM (not active)
COc1ccccc1C(=O)Nc1ccc2c(c1)CCCN2C(=O)c1ccccc1,EC50,[1],0.712 µM (active)
same,EC50,[2],19.1 µM (active)
Fc1cc(Br)ccc1COc1ccc(-c2nnco2)cc1,IC50,Protein skinhead-1,> 100 µM (inactive)
COc1ccc(OC)c(Nc2nc(C3CC3)nc3c2nnn3Cc2ccccc2)c1,EC50,[1],> 112 µM (not active)
same,EC50,[2],> 112 µM (not active)
CCc1ccc(N2CC(C(=O)OCC(=O)c3c(N)n(CC(C)C)c(=O)n(C)c3=O)CC2=O)cc1 (centres undefined),EC50,[1],> 112 µM (not active)
same,EC50,[2],> 112 µM (not active)
CCCCn1nc(C(=O)Oc2ccc3c(C)cc(=O)oc3c2)c2ccccc2c1=O,IC50,H9c2,> 79 µM (inactive)
O=C(Cn1[nH]c(=O)c2ccccc2c1=O)OCC(=O)N1CCc2ccccc2C1,IC50,H9c2,28.5 µM (active)
Cn1c(=O)c2c(nc(Br)n2Cc2ccc3ccccc3c2)n(C)c1=O,IC50,H9c2,13.7 µM (active)
CCOc1nc(-c2ccncc2)nc2ccccc12,IC50,Protein skinhead-1,> 100 µM (inactive)
COc1ccc(C2C(C(=O)Nc3cc(OC)c(OC)c(OC)c3)c3ccccc3C(=O)N2C)cc1 (centres undefined),EC50,BJ [3],2.43 µM (inconclusive)
same,EC50,BJ [4],2.56 µM (inconclusive)
same,EC50,[5],2.62 µM (active)
same,EC50,BJ [6],104 µM (inconclusive)
CCC(C)N(C(=O)COC(=O)Cc1nnc(O)c2ccccc12)C1CCS(=O)(=O)C1 (centres undefined),IC50,H9c2,> 79 µM (inactive)
Brc1ccc(-c2cn3cccnc3n2)cc1,IC50,Protein skinhead-1,> 100 µM (inactive)
Cn1c(=O)[nH]c(=O)c2c1nc(N1CCCCCC1)n2CC(N)=O,EC50,[1],> 112 µM (not active)
same,EC50,[2],> 112 µM (not active)
CNC(=S)N1CCN(c2ccc(OC)cc2)CC1,IC50,Large T antigen,34 µM (active)
Clc1ccc(-c2nnc(-c3cccnc3)o2)cc1,IC50,Protein skinhead-1,30.1 µM (active)
CC1CCCN(C(=O)c2ccncc2)C1 (centres undefined),IC50,Protein skinhead-1,> 100 µM (inactive)
COc1cccc2cc(C(C)N(CCCN3CCOCC3)C(=O)Nc3ccccc3)oc12 (centres undefined),EC50,[1],> 112 µM (not active)
same,EC50,[2],> 112 µM (not active)
Cc1ccccc1NC(=O)CSC1=C(C#N)C(c2ccsc2)CC(=O)N1 (centres undefined),IC50,Protein skinhead-1,> 100 µM (inactive)
Cc1ccc(S(=O)(=O)CCc2nnc(NC(=O)CCl)s2)cc1C,EC50,BJ [3],3.06 µM (active)
same,EC50,BJ [4],> 150 µM (not active)
same,EC50,[5],10.5 µM (active)
same,EC50,BJ [6],14.7 µM (active)
O=C1N=C(NCc2ccccc2)S/C1=C/c1ccc(O)cc1,IC50,Large T antigen,11.7 µM (active)
same,IC50,[7],18.9 µM (active)
CCCc1nc2ccccc2c(=O)n1-c1ccc(OC)cc1,AC50,Cytochrome P450 2D6,14.1 µM (inconclusive)
same,IC50,Protein skinhead-1,> 100 µM (inactive)
COCCOC(=O)c1[nH]c2c(c1C)C(=O)CC(c1ccccc1)C2 (centres undefined),EC50,BJ [3],2.62 µM (inconclusive)
same,EC50,BJ [4],1.79 µM (active)
same,EC50,[8],8.73 µM (inconclusive)
same,EC50,[9],4.34 µM (active)
same,EC50,[10],10.6 µM (active)
same,EC50,[5],2 µM (active)
same,EC50,BJ [6],4.01 µM (active)
Cc1ccc2sc(NNC(=O)c3ccc4c(c3)OCCO4)nc2c1C,EC50,[11],13 µM (active)
same,EC50,Streptococcus,18.3 µM (active)
same,IC50,H9c2,32.5 µM (inactive)
same,EC50,Streptokinase A,> 150 µM (not active)
CC1=CC(C)CC(C)OC(=O)CC(c2ccc(O)cc2)NC(=O)C(Cc2c(Br)[nH]c3ccccc23)N(C)C(=O)C(C)NC(=O)C(C)C1 (centres undefined),AC50,Paired box protein Pax-8,< 0.26 µM (active)
same,AC50,[12],4.09 µM (active)
C[C@@]12C(=O)Nc3ccc(Br)cc3C(=O)N1[C@H]1c3ccccc3OC[C@@H]1[C@@H]2c1ccccc1,AC50,[12],0.427 µM (active)
CC(=O)Nc1cc(-c2cccc(NS(C)(=O)=O)c2)cn2c(-c3cccc(C(C)=O)c3)cnc12,IC50,H9c2,12.8 µM (active)
COc1ccc(CNC(=S)N/N=C/c2ccc(O)c(OC)c2)cc1,EC50,cells [13],> 350 µM (not active)
same,EC50,cells [14],> 350 µM (not active)
same,IC50,Large T antigen,27.7 µM (active)
Cn1ncc(Cl)c1C(=O)N/N=C/c1ccccn1,IC50,H9c2,71.6 µM (inactive)
COc1cccc(/C=N/Nc2ncnc3scc(-c4ccccc4)c23)c1OC,IC50,H9c2,> 79 µM (inactive)
C[C@@H]1CCCCO[C@@H](CN(C)Cc2ccc(Cl)c(Cl)c2)[C@H](C)CN([C@@H](C)CO)C(=O)c2cc(NC(=O)Cc3ccccc3)ccc2O1,AC50,Paired box protein Pax-8,4.54 µM (active)
COc1cc([C@@H]2Oc3cc(C4Oc5cc(O)cc(O)c5C(=O)[C@H]4O)ccc3O[C@H]2CO)ccc1O (some centres undefined),IC50,Large T antigen,57.5 µM (active)
Cc1nn(-c2ccc([N+](=O)[O-])cc2)c(O)c1/C=N/CCN1CCN(C(=O)c2cccc(F)c2)CC1,AC50,[12],5.99 µM (active)
CCNc1nc(Cl)nc(NC(C)C)n1 [ATRAZINE],EC50,[1],> 112 µM (not active)
same,EC50,[2],> 112 µM (not active)
